Measured values taken from DBAASP.
Values after ≈ are worked out from the molar mass of the structure shown. Blank lines part the entries; values can stand above or below the compound they belong to.

Key:
Assay in all cases: ≥ marks a high value that may be exact or a test limit, other limits are often not marked, values filed in µg/mL are converted to µM
Bacillus subtilis 168 = test system: Bacillus subtilis 168
[1] = test system: Candida albicans F7-39/IDE99
Escherichia coli B = test system: Escherichia coli B
[2] = test system: Micrococcus luteus CCM 144
[3] = test system: Pseudomonas aeruginosa ATCC 27853
Pseudomonas aeruginosa = test system: Pseudomonas aeruginosa
Staphylococcus aureus 1 = test system: Staphylococcus aureus 1
[4] = test system: Staphylococcus aureus ATCC 43300
Staphylococcus aureus = test system: Staphylococcus aureus
[5] = test system: Staphylococcus epidermidis
[6] = test system: Fusarium graminearum PH-1
[7] = test system: Cronobacter muytjensii ATCC 51329
[8] = test system: Cronobacter sakazakii ATCC BAA-894
[9] = test system: Cronobacter sakazakii DPC 6440
[10] = test system: Cronobacter sakazakii DSM 4485
[11] = test system: Escherichia coli NCIMB 11843
[12] = test system: Klebsiella pneumoniae NCIMB 13218
[13] = test system: Pseudomonas fluorescens NCIMB 9046
[14] = test system: Salmonella enterica subsp. enterica serovar Typhimurium LT2
[15] = test system: Staphylococcus aureus NCTC 8325-4
[16] = test system: Staphylococcus aureus Newman
[17] = test system: Staphylococcus aureus RF122
[18] = test system: Staphylococcus aureus RN4220
[19] = test system: Staphylococcus aureus SA113
Candida albicans = test system: Candida albicans
[20] = test system: Enterococcus faecalis ATCC 29212
Escherichia coli UB1005 = test system: Escherichia coli UB1005
[21] = test system: Pseudomonas aeruginosa H103
[22] = test system: Salmonella enterica serovar Typhimurium
[23] = test system: Staphylococcus aureus ATCC 25923
Escherichia coli BL21AI = test system: Escherichia coli BL21AI
[24] = test system: Micrococcus luteus ATCC 10240

Compound: CC[C@H](C)[C@H](NC(=O)CN)C(=O)N[C@@H](CC(C)C)C(=O)N[C@@H](CO)C(=O)N[C@@H](CCCCN)C(=O)N[C@@H](CC(C)C)C(=O)N[C@@H](CC(C)C)C(=O)N[C@@H](CCCCN)C(=O)N[C@@H](CCCCN)C(=O)N[C@@H](CC(C)C)C(=O)N[C@@H](CCCCN)C(=O)N[C@@H](CCCCN)C(=O)N[C@H](C(=O)N[C@H](C(=O)N[C@@H](C)C(=O)N[C@@H](CCCCN)C(N)=O)[C@@H](C)CC)[C@@H](C)CC [GILSKLLKKLKKIIAK]
MIC (Bacillus subtilis 168): 7 µM (≈ 12.6 µg/mL)
MIC [1]: ≥ 45 µM
MIC (Escherichia coli B): 18 µM (≈ 32.3 µg/mL)
MIC [2]: 3 µM (≈ 5.38 µg/mL)
MIC [3]: 4.5 µM (≈ 8.07 µg/mL)
MIC (Pseudomonas aeruginosa): 8.5 µM (≈ 15.2 µg/mL)
MIC (Staphylococcus aureus 1): 5.9 µM (≈ 10.6 µg/mL)
MIC [4]: 23 µM (≈ 41.2 µg/mL)
MIC (Staphylococcus aureus): 10 µM (≈ 17.9 µg/mL)
MIC [5]: 1.8 µM (≈ 3.23 µg/mL)

Compound: CC[C@H](C)[C@H](NC(=O)CN)C(=O)N[C@@H](CC(C)C)C(=O)N[C@@H](CO)C(=O)N[C@@H](CO)C(=O)N[C@@H](CC(C)C)C(=O)N[C@@H](CC(C)C)C(=O)N[C@@H](CCCCN)C(=O)N[C@@H](CCCCN)C(=O)N[C@@H](CC(C)C)C(=O)N[C@@H](CCCCN)C(=O)N[C@@H](CCCCN)C(=O)N[C@@H](Cc1c[nH]c2ccccc12)C(=O)N[C@H](C(=O)N[C@@H](C)C(=O)N[C@@H](CCCCN)C(N)=O)[C@@H](C)CC [GILSSLLKKLKKWIAK]
MIC (Bacillus subtilis 168): 7 µM (≈ 12.8 µg/mL)
MIC [1]: 16 µM (≈ 29.2 µg/mL)
MIC (Escherichia coli B): 4 µM (≈ 7.3 µg/mL)
MIC [2]: 3 µM (≈ 5.48 µg/mL)
MIC [3]: 8 µM (≈ 14.6 µg/mL)
MIC (Pseudomonas aeruginosa): 21 µM (≈ 38.3 µg/mL)
MIC (Staphylococcus aureus 1): 2.6 µM (≈ 4.75 µg/mL)
MIC [4]: 8 µM (≈ 14.6 µg/mL)
MIC (Staphylococcus aureus): 4 µM (≈ 7.3 µg/mL)
MIC [5]: 1.6 µM (≈ 2.92 µg/mL)

Compound: CC[C@H](C)[C@H](NC(=O)CN)C(=O)N[C@@H](CCSC)C(=O)N[C@@H](CO)C(=O)N[C@@H](CO)C(=O)N[C@@H](CC(C)C)C(=O)N[C@@H](CCSC)C(=O)N[C@@H](CCCCN)C(=O)N[C@@H](CCCCN)C(=O)N[C@@H](CC(C)C)C(=O)N[C@@H](CCCCN)C(=O)N[C@@H](CCCCN)C(=O)N[C@H](C(=O)N[C@H](C(=O)N[C@@H](C)C(=O)N[C@@H](CCCCN)C(N)=O)[C@@H](C)CC)[C@@H](C)CC [GIMSSLMKKLKKIIAK]
MIC (Bacillus subtilis 168): 7 µM (≈ 12.5 µg/mL)
MIC [1]: 5.2 µM (≈ 9.3 µg/mL)
MIC (Escherichia coli B): 9 µM (≈ 16.1 µg/mL)
MIC [2]: 3 µM (≈ 5.37 µg/mL)
MIC [3]: 5 µM (≈ 8.94 µg/mL)
MIC (Pseudomonas aeruginosa): 7.4 µM (≈ 13.2 µg/mL)
MIC (Staphylococcus aureus 1): 7.6 µM (≈ 13.6 µg/mL)
MIC [4]: 32 µM (≈ 57.2 µg/mL)
MIC (Staphylococcus aureus): 23 µM (≈ 41.1 µg/mL)
MIC [5]: 1.9 µM (≈ 3.4 µg/mL)

Compound: NCC(=O)N[C@@H](CCCN=C(N)N)C(=O)N[C@H]1CSSC[C@@H](C(=O)O)NC(=O)[C@H](CCCN=C(N)N)NC(=O)[C@H](Cc2ccccc2)NC(=O)[C@H](CC(=O)O)NC(=O)[C@H](CC(=O)O)NC(=O)[C@H](CCCN=C(N)N)NC1=O [GRCRDDFRC]
MIC [6]: ≥ 192 µM

Compound: NCC(=O)N[C@@H](CCCN=C(N)N)C(=O)N[C@H]1CSSC[C@@H](C(=O)O)NC(=O)[C@H](CCCN=C(N)N)NC(=O)[C@H](CCCN=C(N)N)NC(=O)[C@H](CCCN=C(N)N)NC(=O)[C@H](Cc2ccccc2)NC(=O)CNC(=O)[C@H](CCCN=C(N)N)NC1=O [GRCRGFRRRC]
MIC [6]: 6 µM (≈ 7.59 µg/mL)

Results, then the compound that gave them:

MIC [7]: ≥ 1250 µM
MIC [8]: ≥ 1250 µM
MIC [9]: ≥ 625 µM
MIC [10]: ≥ 1250 µM
MIC [11]: ≥ 2500 µM
MIC [12]: ≥ 1250 µM
MIC [13]: ≥ 2500 µM
MIC [14]: ≥ 2500 µM
MIC [15]: ≥ 1250 µM
MIC [16]: ≥ 1250 µM
MIC [17]: ≥ 312 µM
MIC [18]: ≥ 312 µM
MIC [19]: ≥ 1250 µM
Compound: CC[C@H](C)[C@H](N)C(=O)N[C@@H](C)C(=O)N[C@@H](C)C(=O)N[C@@H](C)C(=O)NCC(=O)N[C@@H](CC(C)C)C(=O)N1CCC[C@H]1C(=O)N[C@@H](CCC(N)=O)C(=O)N[C@@H](CCC(=O)O)C(=O)O [IAAAGLPQE]

MIC [7]: ≥ 2500 µM
MIC [8]: ≥ 2500 µM
MIC [9]: ≥ 2500 µM
MIC [10]: ≥ 2500 µM
MIC [11]: ≥ 2500 µM
MIC [12]: ≥ 2500 µM
MIC [13]: ≥ 2500 µM
MIC [14]: ≥ 2500 µM
MIC [15]: ≥ 2500 µM
MIC [16]: ≥ 2500 µM
MIC [17]: ≥ 1250 µM
MIC [18]: ≥ 1250 µM
MIC [19]: ≥ 2500 µM
Compound: CC[C@H](C)[C@H](N)C(=O)N[C@@H](Cc1cnc[nH]1)C(=O)N[C@@H](CCC(N)=O)C(=O)NCC(=O)N[C@@H](CC(C)C)C(=O)N1CCC[C@H]1C(=O)N[C@@H](CCC(N)=O)C(=O)N[C@@H](CCC(=O)O)C(=O)O [IHQGLPQE]

MIC (Candida albicans): 2.9 µM (≈ 5.79 µg/mL)
MIC [20]: 2.9 µM (≈ 5.79 µg/mL)
MIC (Escherichia coli UB1005): 1.4 µM (≈ 2.8 µg/mL)
MIC [21]: 5.7 µM (≈ 11.4 µg/mL)
MIC [22]: 5.7 µM (≈ 11.4 µg/mL)
MIC [23]: 0.7 µM (≈ 1.4 µg/mL)
MIC [5]: 0.7 µM (≈ 1.4 µg/mL)
Compound: CC[C@H](C)[C@H](N)C(=O)N[C@@H](CC(C)C)C(=O)N1CCC[C@H]1C(=O)N[C@@H](Cc1c[nH]c2ccccc12)C(=O)N[C@@H](CCCCN)C(=O)N[C@@H](Cc1c[nH]c2ccccc12)C(=O)N[C@@H](CCCN=C(N)N)C(=O)N[C@@H](Cc1c[nH]c2ccccc12)C(=O)N[C@@H](Cc1c[nH]c2ccccc12)C(=O)N[C@@H](CCCCN)C(=O)N[C@@H](Cc1c[nH]c2ccccc12)C(=O)N[C@@H](CCCN=C(N)N)C(=O)N[C@@H](CCCN=C(N)N)C(=O)O [ILPWKWRWWKWRR]

MIC [6]: ≥ 96 µM
Compound: C[C@H](NC(=O)CNC(=O)[C@@H](N)CCCN=C(N)N)C(=O)N[C@@H](CCCN=C(N)N)C(=O)N[C@@H](CCCN=C(N)N)C(=O)N[C@@H](CCCN=C(N)N)C(=O)O [RGARRR]

MIC (Candida albicans): 21.4 µM (≈ 31 µg/mL)
MIC [20]: 86.2 µM (≈ 125 µg/mL)
MIC (Escherichia coli UB1005): 11 µM (≈ 16 µg/mL)
MIC [21]: 21.4 µM (≈ 31 µg/mL)
MIC [22]: ≥ 43.4 µM
MIC [23]: 86.2 µM (≈ 125 µg/mL)
MIC [5]: 21.4 µM (≈ 31 µg/mL)
Compound: CC[C@H](C)[C@H](NC(=O)[C@H](CCCCN)NC(=O)[C@@H](NC(=O)[C@@H](NC(=O)[C@H](CCCN=C(N)N)NC(=O)[C@H](C)NC(=O)[C@H](CC(C)C)NC(=O)[C@@H](N)CCCN=C(N)N)[C@@H](C)CC)C(C)C)C(=O)N[C@@H](CCCN=C(N)N)C(=O)N[C@H](C(=O)N[C@@H](C)C(=O)N[C@@H](CCCN=C(N)N)C(N)=O)C(C)C [RLARIVKIRVAR]

MIC (Escherichia coli BL21AI): 13.9 µM (≈ 32 µg/mL)
MIC [24]: 6.94 µM (≈ 16 µg/mL)
Compound: CC[C@H](C)[C@H](NC(=O)[C@H](CCCN=C(N)N)NC(=O)[C@H](CCCN=C(N)N)NC(=O)[C@@H]1CCCN1C(=O)[C@@H]1CCCN1C(=O)[C@H](CCCN=C(N)N)NC(=O)[C@@H]1CCCN1C(=O)[C@H](CCCN=C(N)N)NC(=O)[C@@H]1CCCN1C(=O)[C@H](CC(C)C)NC(=O)[C@H](Cc1ccc(O)cc1)NC(=O)[C@@H]1CCCN1C(=O)[C@@H]1CCCN1C(=O)[C@H](CCCCN)NC(=O)[C@H](CC(=O)O)NC(=O)[C@@H](N)C(C)C)C(=O)N[C@@H](Cc1ccc(O)cc1)C(=O)N[C@@H](CC(N)=O)C(=O)N[C@@H](C)C(N)=O [VDKPPYLPRPRPPRRIYNA]

MIC [7]: ≥ 2500 µM
MIC [8]: ≥ 2500 µM
MIC [9]: ≥ 2500 µM
MIC [10]: ≥ 2500 µM
MIC [11]: ≥ 2500 µM
MIC [12]: ≥ 2500 µM
MIC [13]: ≥ 2500 µM
MIC [14]: ≥ 2500 µM
MIC [15]: ≥ 2500 µM
MIC [16]: ≥ 2500 µM
MIC [17]: ≥ 2500 µM
MIC [18]: ≥ 2500 µM
MIC [19]: ≥ 2500 µM
Compound: CC(C)C[C@H](NC(=O)[C@H](CC(C)C)NC(=O)[C@H](CC(N)=O)NC(=O)[C@H](CC(=O)O)NC(=O)[C@H](CC(N)=O)NC(=O)[C@H](CC(C)C)NC(=O)[C@@H](N)C(C)C)C(=O)N[C@@H](CCCN=C(N)N)C(=O)O [VLNDNLLR]
